# Assay results: article PMC7763892, “Anti-Inflammatory Effect of Homo- and Heterodimers of Natural Enkephalinase Inhibitors in Experimental Colitis in Mice” (Molecules, 2020)
# Where a SMILES comes first, the peptide text is derived from it.
# Key:
# [1] = Stability in human plasma; format: in vitro ADME; settings: RP-HPLC
# Method: Plasma-stability assays were performed, as described previously. The sample preparation and the analysis of peptide I were both performed in the same way as in our previous work. Peptides III and X were analyzed by RP-HPLC using a linear gradient of 20–80% B over 20 min with the same solvent system of 0.1% TFA in water (A) and 0.1% TFA in acetonitrile (B), with a flow rate of 1.5 mL/min. All measurements were performed in triplicate.
# [2] = Solubility in Tris-HCl buffer; format: physicochemical; settings: Tris-HCl buffer + 3% DMSO
# Method: The designed dimers (peptides IX–XI) were sparingly soluble in Tris-HCl buffer. To improve their solubility in Tris-HCl buffer, 3% DMSO was added to the samples. […] In the time of analysis of spinorphin (III) and peptide IV, products with the same retention time as the analyzed substrate, were created, which made determining the inhibitory activity of the investigated peptides against NEP impossible.
# [3] = target: neutral endopeptidase (NEP) (Homo sapiens, UniProt P08473); settings: Tris-HCl buffer 50 mM, pH 7.4, 37 °C, RP-HPLC, mean ± SEM, ref Sobocińska et al. [24], cited from earlier work
# Chain of neutral endopeptidase (NEP) (P08473 whole entry, species assumed): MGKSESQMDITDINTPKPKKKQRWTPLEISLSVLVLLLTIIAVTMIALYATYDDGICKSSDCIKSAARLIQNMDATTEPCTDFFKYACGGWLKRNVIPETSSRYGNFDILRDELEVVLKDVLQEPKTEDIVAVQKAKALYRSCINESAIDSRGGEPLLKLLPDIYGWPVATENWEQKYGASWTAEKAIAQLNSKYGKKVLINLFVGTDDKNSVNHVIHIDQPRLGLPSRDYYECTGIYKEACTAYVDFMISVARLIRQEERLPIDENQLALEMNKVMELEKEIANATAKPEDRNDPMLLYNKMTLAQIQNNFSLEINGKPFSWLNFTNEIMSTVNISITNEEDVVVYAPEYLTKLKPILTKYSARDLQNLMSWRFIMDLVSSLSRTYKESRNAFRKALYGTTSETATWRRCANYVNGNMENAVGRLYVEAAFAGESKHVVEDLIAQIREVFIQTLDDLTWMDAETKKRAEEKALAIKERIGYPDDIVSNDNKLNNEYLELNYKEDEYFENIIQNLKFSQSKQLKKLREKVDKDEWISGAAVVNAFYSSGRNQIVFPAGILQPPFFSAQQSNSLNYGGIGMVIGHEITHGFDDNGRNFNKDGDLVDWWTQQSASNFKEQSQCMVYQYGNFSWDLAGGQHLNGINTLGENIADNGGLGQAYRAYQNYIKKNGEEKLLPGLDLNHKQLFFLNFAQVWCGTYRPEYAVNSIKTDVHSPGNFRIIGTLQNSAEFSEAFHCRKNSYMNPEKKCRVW
# TNBS-induced colitis = settings: mouse model; cited from earlier work
# [4] = cited from earlier work
# [5] = cited from earlier work; remark: listed apart in the source
# Method: In stability assays in human plasma, peptide X was included because this compound was selected for in vivo assays of the anti-inflammatory activity. […] After 2 h of incubation, the levels of peptide X were, respectively, 10.3 and ...
compound,measurement,setting,value
"CC(C)C[C@H](N)C(=O)N[C@H](C(=O)N[C@H](C(=O)N[C@@H](Cc1ccc(O)cc1)C(=O)N1CCC[C@H]1C(=O)N[C@@H](Cc1c[nH]c2ccccc12)C(=O)N[C@H](C(=O)O)[C@@H](C)O)C(C)C)C(C)C [III, Spinorphin (Leu-Val-Val-Tyr-Pro-Trp-Thr)] (H-LVVYPWT-OH)",% of remaining peptide in human plasma after 4 h,"[1]; 4 h incubation, triplicate",completely decomposed
"CC(C)C[C@H](NC(=O)[C@@H](N)CSSC[C@H](N)C(=O)N[C@@H](CC(C)C)C(=O)N[C@H](C(=O)N[C@H](C(=O)N[C@@H](Cc1ccc(O)cc1)C(=O)N1CCC[C@H]1C(=O)N[C@@H](Cc1c[nH]c2ccccc12)C(=O)N[C@H](C(=O)O)[C@@H](C)O)C(C)C)C(C)C)C(=O)N[C@H](C(=O)N[C@H](C(=O)N[C@@H](Cc1ccc(O)cc1)C(=O)N1CCC[C@H]1C(=O)N[C@@H](Cc1c[nH]c2ccccc12)C(=O)N[C@H](C(=O)O)[C@@H](C)O)C(C)C)C(C)C [IX, (Cys-Leu-Val-Val-Tyr-Pro-Trp-Thr)2] (HELM PEPTIDE1{C.L.V.V.Y.P.W.T}|PEPTIDE2{C.L.V.V.Y.P.W.T}$PEPTIDE1,PEPTIDE2,1:R3-1:R3$$$V2.0)",solubility in Tris-HCl buffer with 3% DMSO,[2],did not help to dissolve
"CC(C)C[C@H](NC(=O)[C@@H](N)CSSC[C@H](N)C(=O)N[C@@H](CCC(N)=O)C(=O)N[C@@H](Cc1c[nH]cn1)C(=O)N[C@@H](CC(N)=O)C(=O)N1CCC[C@H]1C(=O)N[C@@H](CCCNC(=N)N)C(=O)O)C(=O)N[C@H](C(=O)N[C@H](C(=O)N[C@@H](Cc1ccc(O)cc1)C(=O)N1CCC[C@H]1C(=O)N[C@@H](Cc1c[nH]c2ccccc12)C(=O)N[C@H](C(=O)O)[C@@H](C)O)C(C)C)C(C)C [Peptide X, Cys-Gln-His-Asn-Pro-Arg │ Cys-Leu-Val-Val-Tyr-Pro-Trp-Thr] (HELM PEPTIDE1{C.L.V.V.Y.P.W.T}|PEPTIDE2{C.Q.H.N.P.R}$PEPTIDE1,PEPTIDE2,1:R3-1:R3$$$V2.0)",level of peptide in human plasma after 2 h relative to spinorphin,"[1]; 2 h incubation, times higher",4 times
same,remaining at 4 h,"[1]; 4 h incubation, triplicate, read-out: % of remaining peptide in human plasma after 4 h",42%
same,remaining at 24 h,"[1]; 24 h incubation, triplicate, read-out: % of remaining peptide in human plasma after 24 h",8%
"Gln-His-Asn-Pro-Arg [Peptide I, Sialorphin (Gln-His-Asn-Pro-Arg)]","1000 × k, degradation rate of Met-enkephalin incubated with NEP and peptide",[3]; without inhibitor 25.35 ± 1.05,8.84 ± 0.27 ** 1/min
same,"t1/2, half-life of Met-enkephalin incubated with NEP and peptide",[3]; without inhibitor 27 ± 1,78 ± 2 min
Opiorphin (Gln-Arg-Phe-Ser-Arg) [II],anti-inflammatory effect in TNBS-induced colitis,TNBS-induced colitis,lack of a anti-inflammatory effect
same,amount that disappears in human plasma because of potential complex formation,[4],12%
same,metabolic half-life in human plasma,[4],5 min
same,disappearance in human plasma by cyclization of Gln1 to Glp,[4]; maximum,≤ 16%
Pal-KKQRFSR,anti-inflammatory effect in TNBS-induced colitis,TNBS-induced colitis,lack of a anti-inflammatory effect
Sialorphin (Gln-His-Asn-Pro-Arg) [Peptide I],remaining peptide in human plasma after 4 h,"[5]; 4 h incubation, RP-HPLC, ref Sobocinska et al. [21]",completely decomposed
same,stability in human plasma,[5],sensitive to degradation
same,anti-inflammatory effect in TNBS-induced colitis,TNBS-induced colitis,potent anti-inflammatory activity
